Measurements: PMC9742833
Structures can show the parent of a compound that is named as a salt.

How the values were obtained:
CYP2C8 [1] = test system: T1, CYP2C8; test: Time-dependent inhibition (IC50 shift, NADPH pre-incubation); type: biochemical, human; conditions: CYP2C8 (stated for all 8 CYPs)
T1 construct: purchased Life Technologies
Procedure: (§1) The procedure followed was similar to that used for screening of CYP reversible inhibition as mentioned above but with slight modifications. The master premix was added with NADP^+ to produce NADPH before the pre-incubation. The mixture was incubated for 30 min with shaking under similar range of concentrations of cathinone as mentioned above for IC50 determination. […] The IC50 shift was derived by calculating ratios of IC50 obtained from pre-incubation with and without NADPH. An IC50 shift ratio of more than 2 signifies irreversible time-dependent inhibition.

CYP2C9 = conditions: human CYP2C9, in vitro; cited from earlier work
CYP1A2 [2] = biological target: T2, CYP1A2 (Homo sapiens, UniProt P05177); test: Vivid CYP450 fluorescence assay, reversible inhibition
T2 sequence (P05177 2-516 limits assumed): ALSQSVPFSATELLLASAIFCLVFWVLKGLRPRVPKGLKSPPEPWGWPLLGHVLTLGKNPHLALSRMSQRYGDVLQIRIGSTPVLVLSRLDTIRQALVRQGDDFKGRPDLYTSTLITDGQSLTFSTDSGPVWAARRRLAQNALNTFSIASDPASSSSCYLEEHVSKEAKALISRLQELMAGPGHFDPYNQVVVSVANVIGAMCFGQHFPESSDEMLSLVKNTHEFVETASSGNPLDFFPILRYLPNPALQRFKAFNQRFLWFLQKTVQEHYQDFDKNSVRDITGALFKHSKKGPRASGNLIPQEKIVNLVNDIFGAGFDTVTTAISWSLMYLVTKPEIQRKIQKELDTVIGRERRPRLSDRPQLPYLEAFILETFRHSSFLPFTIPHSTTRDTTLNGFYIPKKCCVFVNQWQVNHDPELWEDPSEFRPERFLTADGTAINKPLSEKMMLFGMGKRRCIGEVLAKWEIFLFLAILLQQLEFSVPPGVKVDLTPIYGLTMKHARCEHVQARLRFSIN

CYP2C19 [3] = biological target: T3, CYP2C19 (Homo sapiens, UniProt P33261); test: Time-dependent inhibition (IC50 shift, NADPH pre-incubation); type: biochemical; parameters: purchased Life Technologies
Procedure: as §1

CYP2A6 [4] = biological target: T4, CYP2A6 (Homo sapiens, UniProt P11509); test: as above; type: biochemical; parameters: purchased Life Technologies
T4 sequence (P11509 1-494): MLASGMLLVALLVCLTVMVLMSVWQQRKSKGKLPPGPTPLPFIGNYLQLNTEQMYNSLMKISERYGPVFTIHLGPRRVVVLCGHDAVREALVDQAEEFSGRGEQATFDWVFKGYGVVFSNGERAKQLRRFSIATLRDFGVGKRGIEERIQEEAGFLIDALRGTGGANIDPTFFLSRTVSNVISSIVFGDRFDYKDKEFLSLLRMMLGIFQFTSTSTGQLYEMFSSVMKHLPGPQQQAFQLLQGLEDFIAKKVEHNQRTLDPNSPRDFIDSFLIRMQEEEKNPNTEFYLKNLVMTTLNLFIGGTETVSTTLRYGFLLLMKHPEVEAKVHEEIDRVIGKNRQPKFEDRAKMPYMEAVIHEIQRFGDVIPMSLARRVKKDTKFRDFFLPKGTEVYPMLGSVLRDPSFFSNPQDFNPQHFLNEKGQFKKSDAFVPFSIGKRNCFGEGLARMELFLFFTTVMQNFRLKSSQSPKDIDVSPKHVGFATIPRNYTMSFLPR
Procedure: as §1

CYP2E1 [5] = biological target: T5, CYP2E1 (Homo sapiens, UniProt P05181); test: as above; type: biochemical; parameters: purchased Life Technologies
Procedure: as §1

CYP1A2 [6] = biological target: T2, CYP1A2; test: as above; type: biochemical; parameters: purchased Life Technologies
Procedure: as §1

CYP2B6 [7] = biological target: T6, CYP2B6 (Homo sapiens, UniProt P20813); test: as above; type: biochemical; parameters: purchased Life Technologies
T6 sequence (P20813 1-491): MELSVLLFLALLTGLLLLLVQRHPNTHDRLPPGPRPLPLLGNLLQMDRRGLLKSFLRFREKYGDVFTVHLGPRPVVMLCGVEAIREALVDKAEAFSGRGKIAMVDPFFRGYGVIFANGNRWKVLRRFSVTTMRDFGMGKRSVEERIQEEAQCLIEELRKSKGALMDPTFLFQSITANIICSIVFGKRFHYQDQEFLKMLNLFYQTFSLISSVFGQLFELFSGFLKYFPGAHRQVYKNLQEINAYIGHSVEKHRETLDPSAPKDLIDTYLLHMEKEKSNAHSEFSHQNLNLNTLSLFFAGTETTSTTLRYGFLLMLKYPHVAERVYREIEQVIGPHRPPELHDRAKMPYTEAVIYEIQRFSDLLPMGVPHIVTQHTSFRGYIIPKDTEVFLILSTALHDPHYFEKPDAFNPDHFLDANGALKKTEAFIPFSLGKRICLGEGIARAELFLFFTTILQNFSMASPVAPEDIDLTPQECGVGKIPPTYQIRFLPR
Procedure: as §1

CYP3A5 [8] = biological target: T7, CYP3A5 (Homo sapiens, UniProt P20815); test: as above; type: biochemical; parameters: purchased Life Technologies
Procedure: as §1

CYP2J2 [9] = biological target: T8, CYP2J2 (Homo sapiens, UniProt P51589); test: as above; type: biochemical; parameters: purchased Life Technologies
T8 sequence (P51589 1-502): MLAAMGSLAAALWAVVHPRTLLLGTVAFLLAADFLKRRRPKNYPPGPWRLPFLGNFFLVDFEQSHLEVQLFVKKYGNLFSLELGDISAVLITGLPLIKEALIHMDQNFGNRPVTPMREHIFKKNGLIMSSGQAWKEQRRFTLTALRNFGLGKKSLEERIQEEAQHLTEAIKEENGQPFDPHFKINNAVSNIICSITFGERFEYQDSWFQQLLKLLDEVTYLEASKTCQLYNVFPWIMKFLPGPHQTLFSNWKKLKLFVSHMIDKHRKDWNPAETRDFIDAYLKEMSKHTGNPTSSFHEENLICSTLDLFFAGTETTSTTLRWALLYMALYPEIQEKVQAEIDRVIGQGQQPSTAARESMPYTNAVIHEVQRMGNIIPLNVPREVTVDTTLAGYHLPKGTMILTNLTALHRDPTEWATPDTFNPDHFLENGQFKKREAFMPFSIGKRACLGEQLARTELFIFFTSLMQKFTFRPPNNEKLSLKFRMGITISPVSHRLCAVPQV
Procedure: as §1

CYP2C19 [10] = biological target: T3, CYP2C19; test: Vivid CYP450 fluorescence assay, reversible inhibition
CYP2C8 [11] = test: as above; conditions: CYP2C8, substrate DBOMF, cathinone 0 to 1000 µM
[12] = cited from earlier work
CYP3A5 [13] = biological target: T7, CYP3A5; test: Vivid CYP450 fluorescence assay, reversible inhibition
[14] = from 36.1 to 59.2 g of khat chewed, mean ± SD; cited from earlier work
CYP2J2 [15] = biological target: T8, CYP2J2; test: Vivid CYP450 fluorescence assay, reversible inhibition
CYP2B6 [16] = biological target: T6, CYP2B6; test: as above
[17] = cited from earlier work; remark: listed apart in the source
CYP2D6 = conditions: human CYP2D6, in vitro; cited from earlier work
CYP2E1 [18] = biological target: T5, CYP2E1; test: Vivid CYP450 fluorescence assay, reversible inhibition
CYP3A4 = conditions: human CYP3A4, in vitro; cited from earlier work
CYP2A6 [19] = biological target: T4, CYP2A6; test: Vivid CYP450 fluorescence assay, reversible inhibition

T7 sequence (P20815 whole entry): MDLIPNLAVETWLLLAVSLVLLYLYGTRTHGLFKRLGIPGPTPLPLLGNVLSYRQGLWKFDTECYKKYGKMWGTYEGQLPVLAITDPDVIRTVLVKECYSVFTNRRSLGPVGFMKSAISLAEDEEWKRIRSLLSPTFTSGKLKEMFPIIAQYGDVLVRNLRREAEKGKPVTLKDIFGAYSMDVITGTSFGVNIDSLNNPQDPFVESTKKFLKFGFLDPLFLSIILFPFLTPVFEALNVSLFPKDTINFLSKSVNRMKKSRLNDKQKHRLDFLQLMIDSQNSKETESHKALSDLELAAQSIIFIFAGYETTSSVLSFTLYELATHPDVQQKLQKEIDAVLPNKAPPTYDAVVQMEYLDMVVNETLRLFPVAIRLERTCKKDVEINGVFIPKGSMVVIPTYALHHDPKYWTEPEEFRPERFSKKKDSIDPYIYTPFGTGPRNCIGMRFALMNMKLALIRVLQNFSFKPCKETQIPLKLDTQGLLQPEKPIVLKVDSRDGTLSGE
T3 sequence (P33261 whole entry): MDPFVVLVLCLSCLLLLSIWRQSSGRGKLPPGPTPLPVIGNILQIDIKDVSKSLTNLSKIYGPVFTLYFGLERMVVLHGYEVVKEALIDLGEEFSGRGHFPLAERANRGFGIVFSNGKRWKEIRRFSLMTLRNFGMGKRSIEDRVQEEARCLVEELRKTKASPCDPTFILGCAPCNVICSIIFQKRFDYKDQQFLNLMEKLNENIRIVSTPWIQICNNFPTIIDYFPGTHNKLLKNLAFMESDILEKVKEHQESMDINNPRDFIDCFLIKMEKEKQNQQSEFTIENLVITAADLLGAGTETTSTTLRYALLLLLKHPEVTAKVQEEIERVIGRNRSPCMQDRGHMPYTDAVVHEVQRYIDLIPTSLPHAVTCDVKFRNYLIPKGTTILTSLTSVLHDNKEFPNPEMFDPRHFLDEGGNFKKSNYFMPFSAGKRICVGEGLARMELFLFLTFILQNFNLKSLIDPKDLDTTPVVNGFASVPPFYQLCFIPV
T5 sequence (P05181 whole entry): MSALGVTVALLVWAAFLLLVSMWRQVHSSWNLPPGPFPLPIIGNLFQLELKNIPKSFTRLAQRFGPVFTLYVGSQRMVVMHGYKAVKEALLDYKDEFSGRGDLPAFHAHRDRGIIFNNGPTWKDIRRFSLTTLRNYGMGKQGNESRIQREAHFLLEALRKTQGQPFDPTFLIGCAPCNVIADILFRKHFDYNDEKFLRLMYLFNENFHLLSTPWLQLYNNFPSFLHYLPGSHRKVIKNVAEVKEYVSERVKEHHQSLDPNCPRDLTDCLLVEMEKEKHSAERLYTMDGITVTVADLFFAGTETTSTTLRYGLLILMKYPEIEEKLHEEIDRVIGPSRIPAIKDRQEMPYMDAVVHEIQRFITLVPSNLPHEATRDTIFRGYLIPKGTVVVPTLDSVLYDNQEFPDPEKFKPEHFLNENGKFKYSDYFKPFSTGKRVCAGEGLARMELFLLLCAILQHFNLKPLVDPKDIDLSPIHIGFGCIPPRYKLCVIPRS

C[C@H](N)C(=O)c1ccccc1 [Cathinone, (S)− 2-Amino-1-phenyl-1-propanone.hydrochloride]
time dependent inhibition (TDI) potency (CYP2C8 [1]): no significant TDI potency
inhibitory effects (CYP2C9): negligible inhibitory effects
IC50 (CYP1A2 [2]): 17 µM
Ki (CYP1A2 [2]): 57.1 µM
mode of inhibition (CYP1A2 [2]; CYP1A2): competitive
IC50 (CYP2C19 [3]): 220 µM
IC50 (CYP2A6 [4]): 13.7 µM
IC50 shift at 60 min (CYP2A6 [4]; human, pH 8, probe Vivid CC (3-cyanocoumarin), CYP2A6, shift > 2 = significant TDI): 0.84
IC50 (CYP2E1 [5]): 71.3 µM
IC50 (CYP1A2 [6]): 75.4 µM
IC50 (CYP2B6 [7]): 110 µM
IC50 (CYP3A5 [8]): 11.1 µM
IC50 (CYP2J2 [9]): 194 µM
IC50 (CYP2C19 [10]): 118 µM
inhibition of CYP2C8 (CYP2C8 [11]): no significant inhibition
area under the plasma concentration – time curve (AUC) from 0 to 9 h [12]: 415 ± 207 ng/ml per hour
time of maximal plasma concentration [12]: 127 ± 30 min
maximal plasma concentration ([12]; khat leaves equivalent to 0.8 mg cathinone/kg body weight): 127 ± 53 ng/mL
terminal elimination half-life ([12]; plasma): 4.33 ± 1.7 h
IC50 (CYP3A5 [13]): 19.9 µM
Ki (CYP3A5 [13]): 23.6 µM
mode of inhibition (CYP3A5 [13]; CYP3A5): noncompetitive
Cmax (maximal plasma concentration) [14]: 58.9 ± 18.8 ng/mL
absorbed [14]: 59 ± 21%
IC50 (CYP2J2 [15]): 163 µM
IC50 (CYP2B6 [16]): 165 µM
plasma level ([17]; at 0.5 and 7.5 h after the start of khat chewing): approximately 20 ng/ml
maximum plasma levels (mean) ([17]; khat chewing): 83 ng/mL
inhibitory effects (CYP2D6): negligible inhibitory effects
IC50 (CYP2E1 [18]): 568 µM
inhibitory effects (CYP3A4): negligible inhibitory effects
IC50 (CYP2A6 [19]): 11.5 µM
Ki (CYP2A6 [19]): 13.8 µM
mode of inhibition (CYP2A6 [19]; CYP2A6): un-competitive

C[C@H](N)[C@@H](O)c1ccccc1 [cathine, S,S-(+)-norpseudoephedrine]
Cmax (maximal plasma concentration) [14]: 71.2 ± 13.9 ng/mL
absorbed [14]: 84 ± 6%
